Key:
Test in all cases: relative cell growth vs untreated control (GI, NCI-DTP normalisation with time-zero) (fraction of control growth); higher = more growth / less inhibition
Conditions in all cases: treatment time: 120 h
[1] = system: NCIH460
Experimental: (§1)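 Cancer cell lines in 96-well plates were treated 48 h after seeding with M4076 (ATM inhibitor) and berzosertib (ATR inhibitor), alone or mixed, in 4-fold dilutions for 120 h. Protein was read by sulforhodamine B staining, background-subtracted and normalised NCI-DTP style to untreated control growth. Rows with one concentration equal to 0 are monotherapy.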

[2] = system: MDAMB231
Experimental: as §1

[3] = system: WSUNHL
Experimental: as §1

[4] = system: MHHES1
Experimental: as §1

[5] = system: RDES
Experimental: as §1

[6] = system: U87MG
Experimental: as §1

[7] = system: SAOS2
Experimental: as §1

CNCc1ccc(-c2cc(-c3nc(-c4ccc(S(=O)(=O)C(C)C)cc4)cnc3N)on2)cc1 [berzosertib] + COc1cc2ncc3c(c2cc1-c1cn(C)nc1C)n(-c1c(F)cncc1OC)c(=O)n3C [M4076]
relative cell growth, concentration of partner 0 M
Conditions | [1] | [2] | [3] | [4] | [5] | [6] | [7]
concentration of first compound 0.0195 µM | 1.12 | 1.06 | 1.44 | 1.26 | 1.15 | 1.09 | 1.16
concentration of first compound 0.0781 µM | 1.09 | 1.09 | 1.68 | 1.21 | 1.14 | 1.07 | 1.11
concentration of first compound 0.2 µM | 0.607 | 0.976 | 1.18 | 0.599 | 1.01 | 0.8 | 0.645
concentration of first compound 0.313 µM | 0.357 | 0.775 | 0.779 | 0.436 | 0.873 | 0.677 | 0.559
concentration of first compound 1.25 µM | 0.0867 | 0.0906 | -0.0504 | 0.0564 | 0.254 | 0.185 | 0.0446
concentration of first compound 5 µM | 0.0406 | -0.057 | -0.0908 | -0.0244 | -0.0925 | 0.195 | -0.116

COc1cc2ncc3c(c2cc1-c1cn(C)nc1C)n(-c1c(F)cncc1OC)c(=O)n3C [M4076] + CNCc1ccc(-c2cc(-c3nc(-c4ccc(S(=O)(=O)C(C)C)cc4)cnc3N)on2)cc1 [berzosertib]
relative cell growth
Conditions | [1] | [2] | [3] | [4] | [5] | [6] | [7]
concentration of first compound 0.0195 µM, concentration of partner 0 M | 1.14 | 1.06 | 1.22 | 1.19 | 1.1 | 1.1 | 1.16
concentration of first compound 0.0195 µM, concentration of partner 0.2 µM | 0.607 | 1.1 | 1.48 | 0.662 | 1.16 | 0.891 | 0.735
concentration of first compound 0.0781 µM, concentration of partner 0 M | 1.16 | 1.02 | 1.26 | 1.15 | 1.01 | 1.12 | 1.14
concentration of first compound 0.0781 µM, concentration of partner 0.2 µM | 0.678 | 0.932 | 1.47 | 0.505 | 1.16 | 0.839 | 0.657
concentration of first compound 0.313 µM, concentration of partner 0 M | 1.14 | 0.93 | 0.983 | 1.05 | 0.941 | 1.09 | 1.05
concentration of first compound 0.313 µM, concentration of partner 0.2 µM | 0.354 | 0.499 | 1.07 | 0.17 | 1.13 | 0.682 | 0.319
concentration of first compound 1 µM, concentration of partner 0 M | 0.972 | 0.858 | 0.649 | 0.809 | 0.836 | 0.966 | 0.782
concentration of first compound 1 µM, concentration of partner 0.0195 µM | 0.969 | 0.907 | 0.896 | 0.753 | 0.933 | 0.944 | 0.871
concentration of first compound 1 µM, concentration of partner 0.0781 µM | 0.79 | 0.708 | 0.716 | 0.224 | 0.872 | 0.82 | 0.482
concentration of first compound 1 µM, concentration of partner 0.313 µM | 0.0691 | 0.198 | -0.00911 | 0.0239 | 0.395 | 0.343 | 0.119
concentration of first compound 1 µM, concentration of partner 1.25 µM | -0.00904 | -0.00535 | -0.0958 | -0.0145 | 0.0966 | 0.0996 | -0.0926
concentration of first compound 1 µM, concentration of partner 5 µM | -0.0222 | -0.032 | -0.11 | -0.0266 | -0.0939 | 0.134 | -0.1
concentration of first compound 1.25 µM, concentration of partner 0 M | 1.11 | 0.775 | 0.572 | 0.97 | 0.877 | 1.01 | 0.871
concentration of first compound 1.25 µM, concentration of partner 0.2 µM | 0.199 | 0.328 | 0.294 | 0.0696 | 0.973 | 0.505 | 0.146
concentration of first compound 5 µM, concentration of partner 0 M | 1.06 | 0.695 | 0.166 | 0.65 | 0.681 | 0.853 | 0.652
concentration of first compound 5 µM, concentration of partner 0.2 µM | 0.203 | 0.42 | 0.0497 | 0.05 | 0.706 | 0.381 | 0.113
